Experiment [1] relates to SiHa (human cervical carcinoma). Kind of experiment: MTT cell viability assay, SiHa. The experiment is classed as cell-based. The conditions noted are these: for IC50: Homo sapiens, SiHa, pure compounds, MTT, 48 h incubation. The protocol:
(§1) Human prostatic adenocarcinoma (PC-3, ATCC CRL-7934), human lung adenocarcinoma (A549, ATCC CCL-185), and human cervical carcinoma (SiHa, ATCC HTB-35) cancer cell lines and normal mouse fibroblasts (L929, ATCC CRL-6364) were maintained in a humidified atmosphere with 5% CO2 at 37 °C, and grown as a monolayer culture in Dulbecco’s Modified Eagle Medium (DMEM) medium with 10% (v/v) fetal bovine serum (FBS), 1% (v/v) penicillin, and 1% (v/v) streptomycin. The anti-proliferative effects of G. monspessulana extracts and isolated compounds were measured according to a reported method. Cell suspension (100 µL, 5 × 10^3 cells/well) was inoculated in 96-well plates and cultured for 24 h. After that, the culture medium was replaced with a serum-free medium (100 µL) containing different concentrations of treatments (0.8–500 µg/mL for extracts and 0.16–100 µg/mL for pure compounds). Extracts and compounds were measured in triplicate. A PBS-containing free medium was used as a blank, 1% (w/v) bovine serum albumin-amended medium as negative control (100% survival), and curcumin (0.16–100 µg/mL) was used as the positive control. After 48 h of incubation, the cell viability was assessed by adding MTT (10 µL, 5 mg/mL) to each well, and the plates were subsequently incubated under 5% CO2 at 37 °C for 3 h. Formazan crystals were dissolved with 100 µL of DMSO. Absorbance was measured at 570 nm using a Varioskan LUX 96-well plate reader (Thermo Fisher Scientific, Waltham, MA, USA). The anti-proliferative effects were expressed as half-maximal inhibitory concentration (IC50) in µg/mL (extracts) and µM (compounds). The IC50 values were calculated from the dose-response curves through non-linear regression using GraphPad 5.0 (GraphPad Software, San Diego, CA, USA).

The subject of experiment [2] is L929 (normal mouse fibroblasts). Kind of experiment: MTT cell viability assay, L929 fibroblasts. The experiment is classed as cell-based. The conditions noted are these: 48 h incubation; for IC50: Mus musculus, L929, pure compounds; for IC50 L929: pure compounds. The protocol: as §1
Experiment [3] relates to HL-60 cell line. More on the design: method as in PMID 16887297. Particulars: cytotoxic activity; cited from earlier work.
Experiment [4] concerns PC-3 (human prostate adenocarcinoma). Put plainly: MTT cell viability assay, PC-3. Type of experiment: cell-based. The conditions noted are these: for IC50: pure compounds, MTT, 48 h incubation. The protocol: as §1
The subject of experiment [5] is A549 (human lung carcinoma). Put plainly: MTT cell viability assay, A549. The experiment is classed as cell-based. The conditions noted are these: for IC50: Homo sapiens, A549, pure compounds, MTT, 48 h incubation. As to the method: as §1
For experiment [6], the system named is MCF-7 (human breast cancer cell line). More on the design: method as in PMID 30467293. The conditions noted are these: vs cytisine and (−)-maackiain; cited from earlier work.
In experiment [7] the test system is MDA-MB-231 (human breast cancer cell line). More on the design: method as in PMID 30467293. The conditions noted are these: vs cytisine and (−)-maackiain; cited from earlier work.
For experiment [8], the system named is HL-60 cell line. More on the design: method as in PMID 23850732. The conditions noted are these: cited from earlier work.
The test system of a further experiment is MOLT-4 cell line. More on the design: method as in PMID 23850732. The conditions noted are these: cited from earlier work.
Another experiment relates to K-562 cell line. More on the design: method as in PMID 23850732. The conditions noted are these: cited from earlier work.
The test system of another experiment is MDA-MB cell line. Particulars: cited from earlier work.
In experiment [9] the test system is HepG2 (human hepatocellular carcinoma) cell line. Particulars: cited from earlier work.
For the next experiment, the system named is MCF-7 cell line. Particulars: cited from earlier work.
A further experiment has as its system FaDu cell line. Particulars: cited from earlier work.
Another experiment deals with A549 cell line. Particulars: read-out: IC50 A549; cytotoxic through apoptosis induction; cited from earlier work.
Experiment [10] relates to SMMC-7721 (hepatocellular carcinoma) cells. More on the design: method as in PMID 29330507. Particulars: cited from earlier work.
The subject of a further experiment is PC-3. More on the design: method as in doi:10.1590/S0103-50532012000300015. The conditions noted are these: cited from earlier work.
The subject of experiment [11] is various cancer cell lines (KB, P-388, HL-60, K-562, MOLT-4, H2108, H1299, MRC-5, 786-O, Caki1, SN12C, SH-SY5Y, A375, SK-MEL-1, Eca109, KYSE30, HCT-116, SW480). More on the design: method as in PMID 31551770. The conditions noted are these: cytotoxicity; cited from earlier work.

“And” between values parts separate entries of the source, which are not always exact repeats. Identical values can stand only once. Like-named read-outs stand apart in the source and are kept apart here. Some results are limits rather than exact numbers.

For the compound `O=c1cccc2n1C[C@H]1C[C@@H]2CN2CCCC[C@H]12` [Compound 4, (–)-anagyrine], the IC50 in [1] is more than 409 µM; in [2] it was 36.5 µM; in the experiment with HL-60 cell line [3], 18 µM; in experiment [4] (Homo sapiens) it was 33.5 µM; in experiment [5] it was more than 409 µM.
Regarding `O=C1CCC=C2C3CC(CN12)C1CCCCN1C3` (single isomer, unassigned; (+)) [Compound 7, (+)-5,6-dehydrolupanine], the IC50 in experiment [1] was more than 406 µM; in experiment [2], 85.9 µM; in [4] (Homo sapiens, 48 h), 31.5 µM; in [5], more than 406 µM.
Take `CC1(C)C=Cc2c(cc3occ(-c4ccc(O)c(CN5C[C@@H]6C[C@H](C5)c5cccc(=O)n5C6)c4)c(=O)c3c2O)O1` [Compound 8, (–)-3′-(N-cytisine)methylalpinumisoflavone]: the IC50 in [1] turned out to be 17.5 µM; in experiment [2] it was 385 µM; in [4] (Homo sapiens) it was 10.1 µM; in experiment [5], 46.8 µM. In addition, the “selectivity index (SI = IC50 normal cells/IC50 cancer cells) SiHa” value in [1] (L929 vs SiHa) worked out at 22.0. In addition, in experiment [4] (L929 vs PC-3), the “selectivity index (SI = IC50 normal cells/IC50 cancer cells) PC-3” value is 38.1 and > 30. Further, the “selectivity index (SI = IC50 normal cells/IC50 cancer cells) A549” value in experiment [5] (L929 vs A549) was determined as 8.2.
As to tonkinensine B, the “fold better activity than respective precursors, MCF-7” value in experiment [6] was 2–3 fold. Also, the “fold better activity than respective precursors, MDA-MB-231” value in experiment [7] is reported as 2–3 fold.
Turning to `CC(C)=CCc1c(O)cc2occ(-c3ccc(O)cc3)c(=O)c2c1O` [Compound 6, wighteone], the half-inhibitory concentration (IC50) in [1] was more than 296 µM; in [2] it was more than 296 µM; in the experiment on HL-60 cell line [8], more than 70 µM; in [4] (Homo sapiens, 48 h), 34.3 µM; with MOLT-4 cell line, more than 70 µM; in the experiment with K-562 cell line, more than 70 µM. The compound also showed an IC50 in [5] of more than 296 µM. For the same compound, in experiment [2], the “IC50 L929” value is “inactive”.
On to `O=C1[C@@H]2C[C@H](CN3CCCC[C@@H]23)[C@H]2CCCCN12` [Compound 3, (+)-aphylline], for which the IC50 was more than 403 µM in experiment [1]; 22.3 µM in experiment [2]; 21.3 µM in experiment [4] (Homo sapiens, 48 h); more than 403 µM in [5].
Regarding `COc1cc(/C=C/C(=O)CC(=O)/C=C/c2ccc(O)c(OC)c2)ccc1O` [curcumin, reference compound], the half-inhibitory concentration (IC50) is 6.5 µM in [1]; 105 µM in experiment [2]; 9.5 µM in [4] (Homo sapiens, 48 h); 8.4 µM in [5].
`O=c1cccc2n1C[C@@H]1CNC[C@H]2C1` [Compound 1, (–)-cytisine]: the IC50 in experiment [1] is 357 µM; in experiment [2], 103 µM; in experiment [4] (Homo sapiens, 48 h), less than 18.6 µM; in experiment [4], 15.8 µM; in the experiment on A549 cell line it was 26.8 µM; in experiment [5], 42.5 µM. Besides, the “effect on MDA-MB cell line” value in the experiment with MDA-MB cell line was “not affected”. For the same compound, the “effect on HepG2 cell line” value in experiment [9] is listed as “inducing mitochondrial-mediated apoptosis”. For the same compound, the “effect on MCF-7 cell line” value with MCF-7 cell line was “not affected”. In the experiment on FaDu cell line, the “effect on FaDu cell line” value was “not affected”.
As for `CN1CC2CC(C1)c1cccc(=O)n1C2` (single isomer, unassigned; (-)) [Compound 5, (–)-N-methylcytisine], the 50% inhibitory concentration (IC50) in [1] was more than 490 µM; in experiment [2] it was 91.3 µM; in experiment [4] (Homo sapiens, 48 h), 28.4 µM; in [5] it was 36.3 µM. Further, in experiment [10], the “proliferation of SMMC-7721 cells” value was “can inhibit the proliferation”.
Take `CC1(C)C=Cc2c(cc3occ(-c4ccc(O)cc4)c(=O)c3c2O)O1` [Compound 2, alpinumisoflavone]: the half-inhibitory concentration (IC50) was 19.6 µM in [1]; more than 297 µM in experiment [2]; less than 18.6 µM in experiment [4] (Homo sapiens, 48 h); 18.6 µM in [4]; less than 30 µM in the experiment on PC-3; less than 70 µM in experiment [11]. Besides, the 50% inhibitory concentration (IC50) in experiment [5] is more than 303 µM. Besides, in experiment [2], the “IC50 L929” value is “inactive”.

The record behind these values is paper PMC9268615, “Identification of Anti-Proliferative Compounds from Genista monspessulana Seeds through Covariate-Based Integration of Chemical Fingerprints and Bioactivity Datasets” (Molecules, 2022).
